# Measurements from PubChem BioAssay (NCI).
# Where “and” joins values, the source holds several entries; their conditions need not be identical. Identical values can stand only once.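 Assay format: 96-well plates, 48-hour exposure. GI50 marks 50% less growth. TGI: concentration producing complete growth inhibition.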
# How the values were obtained:
# Assay in all cases: NCI anticancer screen, dose series, 48 h
# [1] = system: K-562 leukemia
# [2] = system: RPMI-8226 leukemia
# [3] = system: OVCAR-5 ovarian
# [4] = system: NCI-H23 lung
# [5] = system: HS 578T breast
# [6] = system: MALME-3M melanoma
# [7] = system: NCI-H460 lung
# [8] = system: UACC-257 melanoma
# [9] = system: SK-MEL-28 melanoma
# [10] = system: HCT-15 colon
SMILES,TGI [1],TGI [2],TGI [3],TGI [4],TGI [5],TGI [6],TGI [7],TGI [8],TGI [9],TGI [10],GI50 [1],GI50 [2],GI50 [10],GI50 [7],GI50 [9]
CCCCNC1CCC2(SCCS2)c2[nH]c3ccccc3c21 (stereo not drawn),55.1 µM,> 43.1 µM,> 100 µM,> 100 µM,> 82.1 µM,33.8 µM,> 100 µM,15.1 µM,> 100 µM,–,–,–,–,–,–
O=c1cc(CNC2CCCC2)[nH]c(=O)[nH]1,> 100 µM,> 100 µM,> 100 µM,> 100 µM,> 100 µM,> 100 µM,> 100 µM,> 100 µM,> 100 µM,> 100 µM,–,–,–,–,–
C=C(C)C(=O)CC[C@@H](C)[C@H]1[C@@H](OC2OC(CO)C(O)C(O)C2O)C[C@@]2(C)[C@@H]3C[C@H](O)C4C(C)(C)[C@@H](OC5OC(CO)C(O)C(O)C5O)CC[C@@]45C[C@@]35CC[C@]12C (stereo partly drawn),> 100 µM,> 100 µM,> 100 µM,> 100 µM,> 100 µM,> 100 µM,> 100 µM,> 100 µM,> 100 µM,> 100 µM,–,–,–,–,–
O=C1Oc2ccccc2C(=O)/C1=C/N1C(=O)N/C(=C\c2ccccc2O)C1=O,> 100 µM,> 100 µM,> 100 µM,> 100 µM,> 100 µM,> 100 µM,> 100 µM,> 100 µM,> 100 µM,> 100 µM,–,–,–,–,–
C1=C\SS/C=C\SS/C=C\SS/C=C\SS/1,64 µM,> 100 µM,> 100 µM,> 100 µM,> 100 µM,> 100 µM,68.3 µM,> 100 µM,> 100 µM,55.8 µM,–,–,–,–,–
O=C(Cn1c(=O)oc2ccc(C(=O)c3ccc(F)cc3)cc21)c1ccc([N+](=O)[O-])cc1,> 100 µM,> 100 µM,> 100 µM,> 100 µM,53.5 µM,> 100 µM,> 100 µM,> 100 µM,> 100 µM,> 100 µM,–,–,–,–,–
CC[C@@]1(O)C(=O)OCc2c1cc1n(c2=O)Cc2c-1nc1ccccc1c2/C=N\NC(=O)C(N)CC(C)C (stereo partly drawn),> 100 µM,3.71 µM,> 68.6 µM,0.112 µM,> 100 µM,7.31 µM,1.26 µM,1.81 µM,> 100 µM,> 36.2 µM,–,–,–,–,–
Cc1ccc(S(=O)(=O)c2scc(-c3ccccc3)c2C)cc1,> 100 µM,> 100 µM,–,> 100 µM,> 100 µM,> 100 µM,> 100 µM,> 100 µM,> 100 µM,> 100 µM,–,–,–,–,–
COc1ccc2oc(=N)c(C(=O)Nc3cccc4ccccc34)cc2c1,> 100 µM,57.9 µM,> 100 µM,> 100 µM,72.1 µM,49.8 µM,> 100 µM,> 100 µM,> 100 µM,> 100 µM,–,–,–,–,–
O=c1[nH]c(=O)n(C2CC(O)C(CO)O2)cc1I (stereo not drawn),> 100 µM,> 100 µM,> 100 µM,> 100 µM,> 100 µM,> 100 µM,> 100 µM,> 100 µM,> 100 µM,> 100 µM,–,–,–,–,–
CC1=NN(C(=O)CSc2nnc(SCC(=O)N3N=C(C)CC3(O)c3ccccc3)s2)C(O)(c2ccccc2)C1 (stereo not drawn),> 100 µM,> 100 µM,> 100 µM,> 100 µM,70.2 µM,> 100 µM,> 100 µM,> 100 µM,> 100 µM,> 100 µM,–,–,–,–,–
CCOC(=O)c1cccc(NC(=O)CCl)c1,29 µM,15.9 µM,16.9 µM,13.1 µM,11 µM,18.5 µM,5.37 µM,14.1 µM,49.7 µM,12.4 µM,–,–,–,–,–
O=C(Cc1ccccc1)NCCc1ccc(O)c(O)c1,39.8 µM,> 100 µM,> 100 µM,> 100 µM,> 100 µM,> 100 µM,> 100 µM,> 100 µM,> 100 µM,> 100 µM,–,–,–,–,–
O=C1NC(N/N=C\C(O)C(O)C(O)CO)=N/C1=C/c1ccccc1 (stereo not drawn),> 100 µM,> 100 µM,> 100 µM,> 100 µM,> 100 µM,> 100 µM,> 100 µM,> 100 µM,> 100 µM,> 100 µM,> 100 µM and 22.7 µM,> 100 µM and 33.7 µM,> 100 µM and 35.5 µM,> 100 µM and 43.4 µM,> 100 µM and 25.6 µM
C/C=C/[C@@]1(OC(=O)c2ccccc2)C[C@@H]2CCCC[C@@H]21,56.7 µM,38.5 µM,30.8 µM,31 µM,27.2 µM,35.3 µM,34.2 µM,34.1 µM,32.9 µM,36.9 µM,–,–,–,–,–
